Measurements taken from patent US11725011B2, “Bicyclic urea kinase inhibitors and uses thereof” (The Broad Institute, Inc., priority 2016, dated 2023).

Assays:
Assay in all cases: KINOMEscan
Assay type in all cases: binding
Conditions in all cases: 1 uM
[1] = molecular target: ABL1 (F317I)-nonphosphorylated (Homo sapiens (Human), UniProt P00519, F317I)
[2] = molecular target: ABL1 (F317L)-phosphorylated (Homo sapiens (Human), UniProt P00519, F317L)
[3] = molecular target: ABL1 (M351T)-phosphorylated (Homo sapiens (Human), UniProt P00519, M351T)
AKT2 = AKT2 (Homo sapiens (Human), UniProt P31751)
ALK (C1156Y) = ALK (C1156Y) (Homo sapiens (Human), UniProt Q9UM73, C1156Y)
CAMK1D = CAMK1D (Homo sapiens (Human), UniProt Q8IU85)
CDK7 = CDK7 (Homo sapiens (Human), UniProt P50613)
CSK = CSK (Homo sapiens (Human), UniProt P41240)
CSNK1G2 = CSNK1G2 (Homo sapiens (Human), UniProt P78368)
DCAMKL2 = DCAMKL2 (Homo sapiens (Human), UniProt Q8N568)
DMPK = DMPK (Homo sapiens (Human), UniProt Q09013)
EPHA1 = EPHA1 (Homo sapiens (Human), UniProt P21709)
EPHB6 = EPHB6 (Homo sapiens (Human), UniProt O15197)
ERN1 = ERN1 (Homo sapiens (Human), UniProt O75460)
FGFR1 = FGFR1 (Homo sapiens (Human), UniProt P11362)
FGR = FGR (Homo sapiens (Human), UniProt P09769)
FRK = FRK (Homo sapiens (Human), UniProt P42685)
GRK4 = GRK4 (Homo sapiens (Human), UniProt P32298)
KIT (V559D, T670I) = KIT (V559D, T670I) (Homo sapiens (Human), UniProt P10721, T670I/V559D)
LIMK1 = LIMK1 (Homo sapiens (Human), UniProt P53667)
LRRK2 = LRRK2 (Homo sapiens (Human), UniProt Q5S007)
MAP3K4 = MAP3K4 (Homo sapiens (Human), UniProt Q9Y6R4)
MEK3 = MEK3 (Homo sapiens (Human), UniProt P46734)
MST4 = MST4 (Homo sapiens (Human), UniProt Q9P289)
MYLK = MYLK (Homo sapiens (Human), UniProt Q15746)
NEK7 = NEK7 (Homo sapiens (Human), UniProt Q8TDX7)
NEK9 = NEK9 (Homo sapiens (Human), UniProt Q8TD19)
PAK4 = PAK4 (Homo sapiens (Human), UniProt O96013)
PCTK3 = PCTK3 (Homo sapiens (Human), UniProt Q07002)
PIK3CD = PIK3CD (Homo sapiens (Human), UniProt O00329)
PIM2 = PIM2 (Homo sapiens (Human), UniProt Q9P1W9)
PIP5K2B = PIP5K2B (Homo sapiens (Human), UniProt P78356)
PIP5K2C = PIP5K2C (Homo sapiens (Human), UniProt Q8TBX8)
PLK4 = PLK4 (Homo sapiens (Human), UniProt O00444)
ROCK1 = ROCK1 (Homo sapiens (Human), UniProt Q13464)
SLK = SLK (Homo sapiens (Human), UniProt Q9H2G2)
TAOK2 = TAOK2 (Homo sapiens (Human), UniProt Q9UL54)
TESK1 = TESK1 (Homo sapiens (Human), UniProt Q15569)
TNK1 = TNK1 (Homo sapiens (Human), UniProt Q13470)
YANK2 = YANK2 (Homo sapiens (Human), UniProt Q9NY57)

Chain of CSK (P41240 whole entry): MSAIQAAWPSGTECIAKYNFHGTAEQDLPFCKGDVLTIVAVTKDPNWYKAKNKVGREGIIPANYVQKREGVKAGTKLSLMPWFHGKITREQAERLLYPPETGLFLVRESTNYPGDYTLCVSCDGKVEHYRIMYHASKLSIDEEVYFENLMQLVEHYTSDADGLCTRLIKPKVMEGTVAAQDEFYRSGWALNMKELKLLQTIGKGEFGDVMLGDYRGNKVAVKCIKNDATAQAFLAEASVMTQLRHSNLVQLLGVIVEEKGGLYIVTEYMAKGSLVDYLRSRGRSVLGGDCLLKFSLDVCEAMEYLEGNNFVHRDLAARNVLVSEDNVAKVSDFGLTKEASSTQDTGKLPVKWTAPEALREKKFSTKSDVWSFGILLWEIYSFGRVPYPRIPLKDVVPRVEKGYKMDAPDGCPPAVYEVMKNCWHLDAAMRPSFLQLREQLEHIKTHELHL
Chain of TAOK2 (Q9UL54 whole entry): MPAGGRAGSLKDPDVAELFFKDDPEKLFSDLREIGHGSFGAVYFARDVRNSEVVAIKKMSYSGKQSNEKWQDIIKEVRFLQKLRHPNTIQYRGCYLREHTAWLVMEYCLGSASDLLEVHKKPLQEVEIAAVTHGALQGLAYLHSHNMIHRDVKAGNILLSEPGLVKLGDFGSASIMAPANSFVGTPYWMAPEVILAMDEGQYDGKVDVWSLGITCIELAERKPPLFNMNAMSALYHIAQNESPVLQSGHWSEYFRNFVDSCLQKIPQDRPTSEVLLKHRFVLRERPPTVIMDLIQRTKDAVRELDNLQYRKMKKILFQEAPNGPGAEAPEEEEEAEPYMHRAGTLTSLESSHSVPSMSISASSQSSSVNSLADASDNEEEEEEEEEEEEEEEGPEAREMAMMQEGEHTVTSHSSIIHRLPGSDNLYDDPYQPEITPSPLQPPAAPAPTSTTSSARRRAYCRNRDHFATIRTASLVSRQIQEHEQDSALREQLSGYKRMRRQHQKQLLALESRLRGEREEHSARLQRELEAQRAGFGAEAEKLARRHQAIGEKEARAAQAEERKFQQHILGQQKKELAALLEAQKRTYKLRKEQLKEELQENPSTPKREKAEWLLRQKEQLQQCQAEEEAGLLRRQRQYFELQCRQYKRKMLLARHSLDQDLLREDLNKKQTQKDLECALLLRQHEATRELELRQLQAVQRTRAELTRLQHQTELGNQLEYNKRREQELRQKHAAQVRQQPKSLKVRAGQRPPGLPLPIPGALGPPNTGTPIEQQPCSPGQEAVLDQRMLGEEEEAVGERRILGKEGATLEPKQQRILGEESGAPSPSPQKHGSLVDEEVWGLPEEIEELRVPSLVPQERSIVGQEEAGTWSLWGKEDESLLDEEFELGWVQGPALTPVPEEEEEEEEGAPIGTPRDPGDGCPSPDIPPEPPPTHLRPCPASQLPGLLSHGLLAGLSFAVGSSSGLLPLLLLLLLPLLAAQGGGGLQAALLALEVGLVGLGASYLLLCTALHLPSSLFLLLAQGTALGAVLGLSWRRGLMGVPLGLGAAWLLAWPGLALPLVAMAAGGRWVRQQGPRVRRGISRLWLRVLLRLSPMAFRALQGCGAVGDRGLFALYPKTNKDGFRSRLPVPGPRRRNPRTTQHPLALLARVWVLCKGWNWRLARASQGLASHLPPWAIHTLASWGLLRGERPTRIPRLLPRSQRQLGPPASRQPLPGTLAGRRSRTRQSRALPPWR
Chain of MAP3K4 (Q9Y6R4 whole entry): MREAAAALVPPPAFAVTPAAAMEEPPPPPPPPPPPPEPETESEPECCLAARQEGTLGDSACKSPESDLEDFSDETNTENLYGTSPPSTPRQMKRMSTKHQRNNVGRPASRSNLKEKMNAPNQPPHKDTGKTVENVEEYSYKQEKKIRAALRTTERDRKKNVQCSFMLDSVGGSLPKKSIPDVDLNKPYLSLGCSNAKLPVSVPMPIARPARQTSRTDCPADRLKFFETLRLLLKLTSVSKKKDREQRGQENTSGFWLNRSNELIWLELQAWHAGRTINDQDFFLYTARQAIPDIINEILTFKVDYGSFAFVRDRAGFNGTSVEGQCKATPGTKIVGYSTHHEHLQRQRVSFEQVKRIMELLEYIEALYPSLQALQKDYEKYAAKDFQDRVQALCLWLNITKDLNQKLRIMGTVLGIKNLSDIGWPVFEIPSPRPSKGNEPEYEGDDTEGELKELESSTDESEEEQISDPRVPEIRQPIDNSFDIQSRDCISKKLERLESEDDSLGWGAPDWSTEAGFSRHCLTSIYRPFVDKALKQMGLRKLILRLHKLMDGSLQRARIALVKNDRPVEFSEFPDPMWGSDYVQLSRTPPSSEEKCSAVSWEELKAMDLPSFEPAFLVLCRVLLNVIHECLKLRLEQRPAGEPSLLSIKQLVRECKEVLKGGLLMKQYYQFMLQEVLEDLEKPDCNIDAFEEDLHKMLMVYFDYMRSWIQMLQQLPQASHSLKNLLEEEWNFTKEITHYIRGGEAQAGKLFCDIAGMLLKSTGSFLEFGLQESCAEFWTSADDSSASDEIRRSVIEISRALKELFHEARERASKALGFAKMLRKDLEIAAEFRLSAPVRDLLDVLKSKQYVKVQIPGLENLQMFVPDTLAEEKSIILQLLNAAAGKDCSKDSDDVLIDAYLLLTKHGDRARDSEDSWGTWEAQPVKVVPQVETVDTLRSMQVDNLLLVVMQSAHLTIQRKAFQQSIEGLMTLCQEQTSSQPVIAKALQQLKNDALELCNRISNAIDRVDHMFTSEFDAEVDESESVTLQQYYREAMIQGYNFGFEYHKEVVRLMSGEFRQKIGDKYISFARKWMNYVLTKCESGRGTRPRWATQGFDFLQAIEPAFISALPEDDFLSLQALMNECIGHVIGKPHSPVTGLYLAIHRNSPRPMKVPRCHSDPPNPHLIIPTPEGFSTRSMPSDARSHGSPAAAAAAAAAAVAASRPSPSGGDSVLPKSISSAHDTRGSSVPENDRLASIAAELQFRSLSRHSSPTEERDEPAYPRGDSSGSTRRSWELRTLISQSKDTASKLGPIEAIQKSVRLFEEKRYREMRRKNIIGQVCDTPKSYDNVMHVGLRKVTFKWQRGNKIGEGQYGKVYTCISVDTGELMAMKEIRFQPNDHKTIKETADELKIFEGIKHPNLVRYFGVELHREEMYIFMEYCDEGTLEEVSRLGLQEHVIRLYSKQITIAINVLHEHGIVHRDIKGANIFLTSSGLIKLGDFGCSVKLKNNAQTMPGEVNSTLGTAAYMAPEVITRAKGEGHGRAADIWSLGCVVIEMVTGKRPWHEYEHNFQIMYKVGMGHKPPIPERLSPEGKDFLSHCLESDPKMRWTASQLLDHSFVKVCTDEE
Chain of ROCK1 (Q13464 whole entry): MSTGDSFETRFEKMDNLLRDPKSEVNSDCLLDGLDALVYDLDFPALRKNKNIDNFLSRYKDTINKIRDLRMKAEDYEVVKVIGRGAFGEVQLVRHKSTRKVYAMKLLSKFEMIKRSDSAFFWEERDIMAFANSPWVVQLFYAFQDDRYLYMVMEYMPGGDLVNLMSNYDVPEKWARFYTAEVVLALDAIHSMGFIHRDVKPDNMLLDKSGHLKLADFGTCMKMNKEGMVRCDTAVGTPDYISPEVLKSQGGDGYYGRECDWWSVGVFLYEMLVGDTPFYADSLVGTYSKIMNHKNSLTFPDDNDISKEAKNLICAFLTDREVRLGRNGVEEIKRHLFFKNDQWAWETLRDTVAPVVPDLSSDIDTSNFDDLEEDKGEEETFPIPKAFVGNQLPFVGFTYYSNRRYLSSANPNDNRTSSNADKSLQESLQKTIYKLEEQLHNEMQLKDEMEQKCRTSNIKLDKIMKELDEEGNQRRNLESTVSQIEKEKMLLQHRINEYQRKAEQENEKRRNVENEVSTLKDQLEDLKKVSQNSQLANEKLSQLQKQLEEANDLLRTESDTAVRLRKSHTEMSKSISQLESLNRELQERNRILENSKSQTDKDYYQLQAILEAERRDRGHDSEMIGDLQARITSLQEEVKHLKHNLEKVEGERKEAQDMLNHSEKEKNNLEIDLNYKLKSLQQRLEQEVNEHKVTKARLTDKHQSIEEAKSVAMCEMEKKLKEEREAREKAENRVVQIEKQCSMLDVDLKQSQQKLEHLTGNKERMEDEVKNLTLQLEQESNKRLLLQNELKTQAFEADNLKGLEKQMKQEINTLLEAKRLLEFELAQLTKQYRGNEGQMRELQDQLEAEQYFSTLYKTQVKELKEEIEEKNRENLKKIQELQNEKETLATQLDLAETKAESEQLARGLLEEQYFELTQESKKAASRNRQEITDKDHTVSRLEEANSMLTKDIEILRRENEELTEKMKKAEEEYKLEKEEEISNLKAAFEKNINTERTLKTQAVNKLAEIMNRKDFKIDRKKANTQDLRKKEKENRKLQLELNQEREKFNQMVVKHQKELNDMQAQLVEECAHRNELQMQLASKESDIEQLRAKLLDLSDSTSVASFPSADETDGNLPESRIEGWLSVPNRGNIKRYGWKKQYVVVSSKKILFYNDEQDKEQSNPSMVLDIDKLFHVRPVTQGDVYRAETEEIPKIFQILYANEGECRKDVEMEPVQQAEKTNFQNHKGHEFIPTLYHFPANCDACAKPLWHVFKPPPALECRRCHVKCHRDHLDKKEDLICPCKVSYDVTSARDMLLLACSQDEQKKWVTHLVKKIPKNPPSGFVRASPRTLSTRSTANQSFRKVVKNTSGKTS
Chain of AKT2 (P31751 whole entry): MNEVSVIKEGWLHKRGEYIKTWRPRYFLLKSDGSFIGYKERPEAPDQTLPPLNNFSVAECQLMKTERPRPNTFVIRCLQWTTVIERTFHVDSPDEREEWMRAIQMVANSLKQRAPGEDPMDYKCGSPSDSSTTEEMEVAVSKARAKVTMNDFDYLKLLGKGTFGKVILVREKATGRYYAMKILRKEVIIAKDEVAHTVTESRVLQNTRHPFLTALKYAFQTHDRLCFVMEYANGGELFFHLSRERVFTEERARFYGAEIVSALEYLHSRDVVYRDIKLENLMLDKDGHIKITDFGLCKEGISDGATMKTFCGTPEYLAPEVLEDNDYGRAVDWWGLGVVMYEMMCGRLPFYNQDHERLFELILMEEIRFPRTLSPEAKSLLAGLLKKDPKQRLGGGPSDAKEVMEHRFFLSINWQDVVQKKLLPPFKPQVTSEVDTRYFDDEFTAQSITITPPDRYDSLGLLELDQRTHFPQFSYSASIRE

COc1ccc(N2C(=O)N(c3c(C)cccc3C)Cc3cnc(Nc4ccc(N5CCN(C)CC5)cc4)nc32)c(OC)c1 [HG-11-136-01]
KINOMEscan ABL1 (F317I)-nonphosphorylated [1]: 0 | KINOMEscan ABL1 (F317L)-phosphorylated [2]: 1.8 | KINOMEscan ABL1 (M351T)-phosphorylated [3]: 0.55 | KINOMEscan AKT2 (AKT2): 100 | KINOMEscan ALK (C1156Y) (ALK (C1156Y)): 12 | KINOMEscan CAMK1D (CAMK1D): 68 | KINOMEscan CDK7 (CDK7): 60 | KINOMEscan CSK (CSK): 0.3 | KINOMEscan CSNK1G2 (CSNK1G2): 100 | KINOMEscan DCAMKL2 (DCAMKL2): 88 | KINOMEscan DMPK (DMPK): 88 | KINOMEscan EPHA1 (EPHA1): 0 | KINOMEscan EPHB6 (EPHB6): 0.7 | KINOMEscan ERN1 (ERN1): 13 | KINOMEscan FGFR1 (FGFR1): 0.15 | KINOMEscan FGR (FGR): 0 | KINOMEscan FRK (FRK): 0.05 | KINOMEscan GRK4 (GRK4): 26 | KINOMEscan KIT (V559D, T670I) (KIT (V559D, T670I)): 55 | KINOMEscan LIMK1 (LIMK1): 0.05 | KINOMEscan LRRK2 (LRRK2): 21 | KINOMEscan MAP3K4 (MAP3K4): 16 | KINOMEscan MEK3 (MEK3): 6.4 | KINOMEscan MST4 (MST4): 2.8 | KINOMEscan MYLK (MYLK): 86 | KINOMEscan NEK7 (NEK7): 100 | KINOMEscan NEK9 (NEK9): 81 | KINOMEscan PAK4 (PAK4): 34 | KINOMEscan PCTK3 (PCTK3): 100 | KINOMEscan PIK3CD (PIK3CD): 72 | KINOMEscan PIM2 (PIM2): 100 | KINOMEscan PIP5K2B (PIP5K2B): 27 | KINOMEscan PIP5K2C (PIP5K2C): 100 | KINOMEscan PLK4 (PLK4): 18 | KINOMEscan ROCK1 (ROCK1): 81 | KINOMEscan SLK (SLK): 0.1 | KINOMEscan TAOK2 (TAOK2): 0 | KINOMEscan TESK1 (TESK1): 0 | KINOMEscan TNK1 (TNK1): 0.9 | KINOMEscan YANK2 (YANK2): 1.8
